Results as given in patent publication US12465609B2, “Methods of treating patients suffering from a disease condition or disorder that is associated with an increased glutamate level” (veriNOS operations GmbH, priority 2022, dated 2025).

Tested on: patients with acute moderate and severe TBI
Assay: NOSTRA III phase III trial, clinical outcome (eGOS, therapy intensity level) in TBI patients
Assay type: in vivo, human
Conditions: for proportion of low TIL levels (3-10 points): patients of 18-39 years; for eGOS median at 6 months: placebo 5
Procedure: Based on the results of the earlier phase II study, the NOSTRA III (NO Synthase in TRAumatic Brain Injury) phase III trial was designed to detect clinically relevant differences in clinical outcome (Extended Glasgow Outcome Score at 6 months after injury) as primary endpoint. In addition, the extracellular intracerebral glutamate levels and lactate levels of these TBI patients were also determined in an exploratory approach to monitor the metabolic state of the patients.
Trials. 2020. A total of 224 evaluable patients with moderate and severe TBI were enrolled in 32 centres in Austria, France, Germany, Spain, and United Kingdom. The trial started on 24 Aug. 2016 with last-patient last-visit on 17 Jun. 2020.
Patients between 18 and 60 years of age with Glasgow Coma Score ≥3 requiring intracranial pressure (ICP) monitoring were enrolled. Other inclusion criteria were TBI within the last 18 hours but at least 6 hours after the injury, which were expected to survive more than 24 hours after admission.
The eGOS was determined by a face to face meeting by trained assessors.
The null-hypothesis of no shift across the 8 ordered categories of eGOS for the two treatment groups was tested after six months based on a proportional odds model stratified by age (18-39 years and 40-60 years). […] Treatment and age (18-39 years and 40-60 years) were included in the model. The proportional odds assumption was tested using a Chi-Square Score Test.
The main objective of the post hoc analyses was to estimate the effect size of VAS203 compared with placebo for the primary endpoint eGOS-I (eGOS-Interview) in the subgroups time to infusion ≤12 hours and >12 hours. Supportive analyses were conducted by age group (<40 years, ≥40 years) because age group was used as a stratification factor in the study. Comparability between treatment groups regarding demographics as well as severity and location of disease was investigated using similar methods as in the main CSR.
The proportions of patients per eGOS-I level at 3 months and at 6 months were calculated. For the change in eGOS-I over time, the proportion of patients with changes from 3 to 6 months were calculated by eGOS-I level, and in addition categorised as decreased (i.e. any decrease in eGOS-I level from 3 to 6 months), unchanged (i.e. no change in eGOS-I level from 3 to 6 months), and increased (i.e. any increase in eGOS-I level from 3 to 6 months).
Ordinal logistic regression was used for the analysis of eGOS-I at 3 months and at 6 months, including treatment group and age group (<40 years, ≥40 years) as factors in the model. Estimated odds ratios for the comparison of the VAS203 and placebo groups of >1 mean that eGOS-I was higher in the VAS203 group than in the placebo group across the 8 levels, whereas odds ratios of <1 mean that eGOS-I was lower in the VAS203 group than in the placebo group. Odds ratios together with their 95% CIs were used to estimate and assess the size of the treatment effect of VAS203 compared to placebo. Proportional […] were assumed as valid for all these analyses because ordinal logistic regression analysis is known to be robust against deviations from this assumption; also, the power of assumption checking would be low for small subgroups.
Based on the time-dependent activation of pathologic cascades during the early phase after TBI and the benefits observed with an infusion of VAS203 during the initial 12 hours after TBI in the Phase IIa trial [Stover], a post-hoc-analysis was performed to determine whether patients in whom VAS203 was infused ≤12 hours after TBI, show better clinical improvement compared to patients in whom infusion was started >12 hours after TBI.

Structure (SMILES): C[C@H](O)[C@H](O)C1CNc2nc(N)nc(N)c2N1 (mixture of isomers) [Ronopterin, 4-Amino-(6R,S)-5,6,7,8-tetrahydro-L-biopterin]
- proportion of patients with Good Recovery (18-39 years, late infusion >12 hours, placebo 38%): 30%
- proportion of patients with Good Recovery (40-60 years, late infusion >12 hours, placebo 19%): 20%
- proportion of patients with Good Recovery (patients aged 18-39 years, early infusion ≤12 hours, placebo 32%): 45%
- proportion of patients with Good Recovery (patients aged 40-60 years, early infusion, placebo 8%): 27%
- proportion of low TIL levels (3-10 points) (second week after TBI, placebo 64%, p=0.0002): 81%
- proportion of low TIL levels (3-10 points) (placebo 62%, p=0.01): 71%
- NNT for Good Recovery (time to infusion <12 hours): 8
- increase of proportion of patients with a Good Recovery at 6 months compared to the Placebo group (time to infusion <12 hours): 61%
- proportion of patients with Good Recovery (eGOS 7 and 8) (time to infusion <12 hours, placebo 23%, ns): 37%
- eGOS median at 6 months (time to infusion >12 hours): 5
- proportion of patients with Good Recovery at 6 months (time to infusion >12 hours, placebo 28%): 25%
- eGOS median at 6 months (time to infusion ≤12 hours, not significant): 6
- overall eGOS-I rating at 6 months vs placebo (primary efficacy endpoint) (total dose 17 mg/kg infused for 48 hours, ordinal logistic regression): No difference
